Results on four compounds are retold here after patent publication US5051405A, “Anti-thrombotic peptides and pseudopeptides” (Rhone-Poulenc Rorer Pharmaceuticals Inc., priority 1989, dated 1991).

In assay [1] the target is T1, fibrinogen binding to thrombin-stimulated platelets (GPIIb/IIIa fibrinogen receptor) (Homo sapiens, UniProt P05106+P08514).
T1 construct: endogenous in cells; host or cells: washed platelets, thrombin-stimulated
Nature of the assay: Inhibition of radiolabeled (125I) fibrinogen binding assay. Particulars: thrombin-stimulated washed platelets; 125I-fibrinogen held at 0.176 μmol/liter (60 μg/ml); 22°-25° C. The procedure: I. Inhibition of Radiolabeled (^125 I) Fibrinogen Binding Assay, which is essentially based on the method described in Proc. Natl. Acad. Sci. U.S.A. Vol. 83, pp. 5708-5712, August 1986, and is as follows.
Platelets are washed free of plasma constituents by the albumin density-gradient technique. In each experimental mixture platelets in modified Tyrode's buffer are stimulated with human α-thrombin at 22°-25° C. for 10 minutes (3.125×10" platelets per liter and thrombin at […]). Hirudin is then added at a 25-fold excess for 5 minutes before addition of the radiolabeled ligand and any competing ligand. After these additions, the final platelet count in the mixture is 1×10"/liter. After incubation for an additional 30 minutes at 22°-25° C., bound and free ligand are separated by centrifuging 50 μl of the mixture through 300 μl of 20% sucrose at 12,000 xg for 4 minutes. The platelet pellet is then separated from the rest of the mixture to determine platelet-bound radioactivity. Nonspecific binding is measured in mixtures containing an excess of unlabeled ligand. When binding curves are analyzed by Scatchard analysis, nonspecific binding is derived as a fitted parameter from the binding isotherm by means of a computerized program. To determine the concentration of each inhibitory compound necessary to inhibit 50% of fibrinogen binding to thrombin-stimulated platelets (IC50), each compound is tested at 6 or more concentrations with ^125 I-labeled fibrinogen held at 0.176 μmol/liter (60 μg/ml). The IC50 is derived by plotting residual fibrinogen binding against the logarithm of the sample compound's concentration.

The target in another assay is Human Platelets (Homo sapiens, UniProt P05106+P08514). The experiment in a line: Inhibition of fibrinogen-mediated platelet aggregation. In kind it is cell-based. The settings on record: compound at 100 μM; thrombin-activated human platelets, human fibrinogen added. The procedure: II. Inhibition of Fibrinogen - Mediated Platelet Aggregation, which is essentially based on the method described in Blood, Vol. 66, No. 4, Oct. 1985, pp. 946-952, and is as follows.
Sequence of Human Platelets (P08514 32-1039): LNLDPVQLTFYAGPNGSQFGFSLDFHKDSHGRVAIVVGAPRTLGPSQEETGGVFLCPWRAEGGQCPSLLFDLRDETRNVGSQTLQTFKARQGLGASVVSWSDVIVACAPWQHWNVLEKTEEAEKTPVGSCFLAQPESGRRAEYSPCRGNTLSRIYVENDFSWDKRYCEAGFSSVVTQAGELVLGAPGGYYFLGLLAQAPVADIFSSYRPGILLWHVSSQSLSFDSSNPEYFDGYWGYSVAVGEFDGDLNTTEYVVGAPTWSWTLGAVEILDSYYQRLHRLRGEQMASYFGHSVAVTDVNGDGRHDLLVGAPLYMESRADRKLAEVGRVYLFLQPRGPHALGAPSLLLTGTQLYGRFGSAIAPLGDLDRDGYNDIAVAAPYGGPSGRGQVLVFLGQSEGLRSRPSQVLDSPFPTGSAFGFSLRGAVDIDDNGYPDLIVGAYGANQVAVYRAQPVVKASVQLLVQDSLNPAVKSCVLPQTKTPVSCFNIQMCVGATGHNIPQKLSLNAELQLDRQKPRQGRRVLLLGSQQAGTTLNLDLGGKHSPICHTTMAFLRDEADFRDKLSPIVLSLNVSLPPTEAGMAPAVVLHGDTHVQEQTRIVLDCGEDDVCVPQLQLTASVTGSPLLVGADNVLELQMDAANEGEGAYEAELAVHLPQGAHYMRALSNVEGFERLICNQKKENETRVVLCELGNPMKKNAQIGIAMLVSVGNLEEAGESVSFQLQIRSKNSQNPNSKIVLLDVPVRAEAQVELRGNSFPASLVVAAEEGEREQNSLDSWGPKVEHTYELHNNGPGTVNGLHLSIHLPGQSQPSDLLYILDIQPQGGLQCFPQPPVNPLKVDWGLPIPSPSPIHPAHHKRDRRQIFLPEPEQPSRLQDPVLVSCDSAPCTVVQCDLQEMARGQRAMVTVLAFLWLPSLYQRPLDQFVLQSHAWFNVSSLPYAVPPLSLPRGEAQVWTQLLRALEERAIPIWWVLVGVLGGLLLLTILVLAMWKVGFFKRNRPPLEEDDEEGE
Sequence of Human Platelets (P05106 27-788): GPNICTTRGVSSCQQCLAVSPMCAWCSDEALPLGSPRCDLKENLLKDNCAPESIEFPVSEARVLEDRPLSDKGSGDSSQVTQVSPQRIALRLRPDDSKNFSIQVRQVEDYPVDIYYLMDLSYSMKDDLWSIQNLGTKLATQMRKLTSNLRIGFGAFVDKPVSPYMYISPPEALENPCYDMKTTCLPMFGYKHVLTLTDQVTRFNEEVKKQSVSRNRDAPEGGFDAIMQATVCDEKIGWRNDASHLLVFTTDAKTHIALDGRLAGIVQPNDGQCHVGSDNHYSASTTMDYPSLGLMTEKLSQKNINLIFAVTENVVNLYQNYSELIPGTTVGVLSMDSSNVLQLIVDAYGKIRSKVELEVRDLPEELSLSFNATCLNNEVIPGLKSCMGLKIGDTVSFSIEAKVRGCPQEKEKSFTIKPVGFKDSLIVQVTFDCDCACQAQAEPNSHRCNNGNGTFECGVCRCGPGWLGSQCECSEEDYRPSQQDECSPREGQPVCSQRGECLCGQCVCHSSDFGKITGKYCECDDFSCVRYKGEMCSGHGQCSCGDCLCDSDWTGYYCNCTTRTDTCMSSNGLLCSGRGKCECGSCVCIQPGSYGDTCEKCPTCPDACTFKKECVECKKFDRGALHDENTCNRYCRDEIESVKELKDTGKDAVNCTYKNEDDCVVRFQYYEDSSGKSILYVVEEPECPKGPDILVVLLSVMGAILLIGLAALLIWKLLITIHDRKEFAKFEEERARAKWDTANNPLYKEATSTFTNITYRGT
Human Platelets were isolated from freshly drawn whole blood and were suspended in 0.14 mol/L NaCl, 2.7 mmol/L […], 12 mmol/L NaHCO3, 0.42 mmol/L Na2 HPO4, 0.55 mmol/L glucose, and 5 mmol/L Hepes, pH 7.35 at 2×10^8 platelets/ml. The suspension was incubated at 37° C. An aliquot of 0.4 ml of platelet suspension was activated by human thrombin at a final concentration of 2 μg/ml of thrombin for one minute. After one minute the reaction was stopped by a thrombin inhibitor. Serial dilution of the compound being tested was then added to the activated platelet, the reaction was allowed to proceed for one minute, followed by the addition of human fibrinogen at a final concentration of […] of fibrinogen. Platelet aggregation was then recorded by an aggregometer. Rate of aggregation was used to calculate IC50.

pIC50: −log10 of the molar value. Where a SMILES comes first, the peptide text is derived from it. [ ]: non-standard residue; d: D form. Inp = O=C(O)C1CCNCC1

T1 sequence (P08514 32-887 limits assumed): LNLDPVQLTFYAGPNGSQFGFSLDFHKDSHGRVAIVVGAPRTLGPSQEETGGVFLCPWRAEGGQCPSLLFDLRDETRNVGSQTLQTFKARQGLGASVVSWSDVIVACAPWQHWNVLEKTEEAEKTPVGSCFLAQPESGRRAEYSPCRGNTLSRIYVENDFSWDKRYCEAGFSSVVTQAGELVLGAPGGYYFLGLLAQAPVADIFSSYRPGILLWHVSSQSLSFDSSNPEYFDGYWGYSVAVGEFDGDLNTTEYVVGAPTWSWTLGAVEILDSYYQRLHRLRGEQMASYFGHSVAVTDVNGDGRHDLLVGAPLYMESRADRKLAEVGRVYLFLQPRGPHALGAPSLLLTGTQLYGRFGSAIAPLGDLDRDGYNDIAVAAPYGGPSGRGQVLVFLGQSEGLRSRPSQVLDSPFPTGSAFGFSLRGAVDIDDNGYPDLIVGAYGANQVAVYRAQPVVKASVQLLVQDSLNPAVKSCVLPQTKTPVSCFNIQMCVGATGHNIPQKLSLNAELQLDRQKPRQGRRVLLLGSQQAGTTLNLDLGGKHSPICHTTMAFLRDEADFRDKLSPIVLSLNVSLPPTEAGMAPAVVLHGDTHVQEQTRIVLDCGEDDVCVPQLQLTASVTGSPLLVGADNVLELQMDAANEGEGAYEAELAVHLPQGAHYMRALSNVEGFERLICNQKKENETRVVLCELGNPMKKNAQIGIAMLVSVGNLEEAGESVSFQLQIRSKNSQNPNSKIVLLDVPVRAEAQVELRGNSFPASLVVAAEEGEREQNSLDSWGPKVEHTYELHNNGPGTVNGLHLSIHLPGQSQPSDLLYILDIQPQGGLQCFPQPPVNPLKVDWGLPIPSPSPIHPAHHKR
T1 sequence (P08514 891-1039 limits assumed): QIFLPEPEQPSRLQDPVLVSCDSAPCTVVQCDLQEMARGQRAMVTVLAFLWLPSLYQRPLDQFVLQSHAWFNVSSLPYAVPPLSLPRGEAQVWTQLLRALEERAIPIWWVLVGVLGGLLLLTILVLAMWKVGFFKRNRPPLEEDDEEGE
T1 sequence (P05106 27-788): as the sequence (P05106 27-788) above

What is called pIC50 is the negative decadic logarithm of the IC50, by convention in mol/L. Read a high pIC50 as a small IC50. By inhibition is commonly meant the drop in the measured response relative to a control, in per cent. Lower therefore signals little suppression. As for `CC(C)[C@H](NC(=O)[C@H](CC(=O)O)NC(=O)CNC(=O)C1CCCNC1)C(=O)O` (stereo partly drawn) [Piperidine-3-Carboxylglycyl-L-Aspartyl-L-Valine], in assay [1], the pIC50 is less than 4.19. At 100 µM the inhibition against Human Platelets was 78%.
In assay [1], `CC(C)[C@H](NC(=O)[C@H](CC(=O)O)NC(=O)CNC(=O)C1CCCN(C(=N)N)C1)C(=O)O` (stereo partly drawn) [N-amidinopiperidine-3-carboxylglycyl-L-aspartyl-L-valine] showed a pIC50 of 4.98. Further, at Human Platelets, the inhibition at 100 µM was 87%.
In assay [1], `CC(C)[C@H](NC(=O)[C@H](CC(=O)O)NC(=O)CNC(=O)C1CCNCC1)C(=O)O` [Piperidine-4-carboxylglycyl-L-Aspartyl-L-Valine] (H-[Inp]GDV-OH) showed a pIC50 of 4.98. On Human Platelets, this compound returned an inhibition at 100 µM of 86%.
For `CC(C)[C@H](NC(=O)[C@H](CC(=O)O)NC(=O)CNC(=O)C1CCN(C(=N)N)CC1)C(=O)O` [1-Amidinopiperidine-4-Carboxylglycyl-L-Aspartyl-L-Valine] the same measures were 5.74 and 92%.
